What was measured:
[1] = target: Sigma non-opioid intracellular receptor 1 (Homo sapiens) (UniProt Q99720); assay: Displacement of [3H]-(+)-pentazocine from human sigma-1 receptor in human T lymphocyte Jurkat cell membrane assessed as residual binding level for radioligand at 10 uM incubated for 120 mins by liquid scintillation counting method relative to control; assay type: tissue-based
[2] = Brain to plasma permeability coefficient, Kp in Sprague-Dawley rat at 0.1 to 0.2 mg/kg, iv measured after 0.25 hrs; assay type: ADME, organism-based; settings: dose 0.1-0.2 mg/kg
[3] = target: Muscarinic acetylcholine receptor M3 (Rattus norvegicus, UniProt P08483); assay: Positive allosteric modulation of rat M3 receptor
[4] = target: Substance-P receptor (Homo sapiens) (UniProt P25103); assay: Displacement of [3H]substance P from recombinant full length human NK1R expressed in CHO cells assessed as residual binding level for radioligand at 10 uM after 90 mins by radiometric scintillation analysis relative to control; assay type: cell-based
[5] = Unbound brain-to-plasma concentration ratio in cynomolgus monkey; assay type: ADME, Macaca fascicularis; settings: read-out: K(p,uu,brain)
Rattus norvegicus [6] = assay: Reversal of amphetamine-induced hyperlocomotion in rat at 0.56 mg/kg, po relative to control; assay type: functional
[7] = target: T1, Muscarinic acetylcholine receptor M4 (Homo sapiens, UniProt P08173); assay: Positive allosteric modulation of human M4 receptor/Gqi5 in presence of EC20 acetylcholine by calcium mobilization assay; assay type: functional
T1 sequence (P08173 whole entry): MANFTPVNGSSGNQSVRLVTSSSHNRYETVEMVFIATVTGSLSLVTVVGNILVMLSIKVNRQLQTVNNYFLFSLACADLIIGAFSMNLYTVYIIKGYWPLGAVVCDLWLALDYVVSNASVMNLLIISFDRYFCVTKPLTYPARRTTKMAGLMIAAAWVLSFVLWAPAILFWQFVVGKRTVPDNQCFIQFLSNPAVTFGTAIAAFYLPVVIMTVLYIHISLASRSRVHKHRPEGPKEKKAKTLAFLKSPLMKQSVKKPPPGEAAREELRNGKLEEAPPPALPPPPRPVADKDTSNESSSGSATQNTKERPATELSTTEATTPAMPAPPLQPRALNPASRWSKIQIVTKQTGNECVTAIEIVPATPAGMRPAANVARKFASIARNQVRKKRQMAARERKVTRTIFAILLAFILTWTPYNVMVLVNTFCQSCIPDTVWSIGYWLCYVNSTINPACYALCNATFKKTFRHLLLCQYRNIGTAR

[8] = target: Cysteinyl leukotriene receptor 1 (Homo sapiens) (UniProt Q9Y271); assay: Displacement of [3H]LTD4 from full length recombinant human CysLT1 Leukotriene receptor expressed in CHO-K1 cells assessed as residual binding level for radioligand at 10 uM incubated for 30 mins radiometric scintillation analysis relative to control; assay type: cell-based
[9] = target: L-type calcium channel Cav1.2, benzothiazepine binding site (Rattus norvegicus, UniProt P22002); assay: Displacement of [3H]-Diltiazem from L-type calcium channel Cav1.2 benzothiazepine binding site in Wistar rat brain membrane assessed as residual binding level for radioligand at 10 uM incubated for 180 mins by radiometric scintillation analysis relative to control; assay type: cell membranes; settings: probe [3H]-Diltiazem, read-out: Activity
[10] = target: Alpha-1D adrenergic receptor (Homo sapiens) (UniProt P25100); assay: Displacement of [3H]-Prazosin from recombinant full length human adrenergic alpha 1D receptor assessed as residual binding level for radioligand at 10 uM incubated for 60 mins by radiometric scintillation analysis relative to control
Cytochrome P450 1A2 = Cytochrome P450 1A2 (Homo sapiens, UniProt P05177); assay: Inhibition of CYP1A2 (unknown origin); assay type: ADME
[11] = target: Alpha-1B adrenergic receptor (Homo sapiens) (UniProt P35368); assay: Displacement of [3H]-Prazosin from human adrenergic alpha 1B receptor expressed in Chem-1 cells assessed as residual binding level for radioligand at 10 uM incubated for 60 mins by radiometric scintillation analysis relative to control; assay type: cell-based
[12] = target: Neuropeptide Y receptor type 1 (Homo sapiens) (UniProt P25929); assay: Displacement of [125I]peptide YY from human Y1 receptor in SK-N-MC cell membrane assessed as residual binding level for radioligand at 10 uM after 120 mins by scintillation counting analysis relative to control
[13] = Fraction unbound in human plasma; assay type: ADME, cell-free
[14] = target: B2 bradykinin receptor (Homo sapiens) (UniProt P30411); assay: Displacement of [3H]bradykinin from recombinant full length human B2 receptor expressed in Chem-1 cells assessed as residual binding level for radioligand at 10 uM after 60 mins by radiometric scintillation analysis relative to control; assay type: cell-based
[15] = Positive allosteric modulation of dog M4 receptor; design: species or system Canis lupus familiaris
[16] = target: Glutamate NMDA receptor (Rattus norvegicus) (UniProt P35439+Q00959+Q00960+Q00961+Q62645+Q8VHN2+Q9R1M7); assay: Displacement of [3H]-CGP39653 from NMDA glutamate receptor in Wistar rat brain assessed as residual binding level for radioligand at 10 uM incubated for 20 mins by scintillation counting analysis relative to control; assay type: tissue-based
[17] = target: Kappa-type opioid receptor (Homo sapiens) (UniProt P41145); assay: Displacement of [3H]-Diprenorphine from recombinant full length human kappa opioid receptor expressed in HEK293 cells assessed as residual binding level for radioligand at 10 uM incubated for 60 mins by scintillation counting analysis relative to control; assay type: cell-based
[18] = target: P2X receptor (Rattus norvegicus) (UniProt P51579+P49653+P51578+Q64663+P47824+P51577+P49654); assay: Displacement of [3H] alpha, beta-Methylene-ATP from P2X receptor in Wistar rat urinary bladder assessed as residual binding level for radioligand at 10 uM incubated for 120 mins by liquid scintillation counting method relative to control; assay type: tissue-based
[19] = target: Sodium-dependent serotonin transporter (Homo sapiens) (UniProt P31645); assay: Displacement of [3H]paroxetine from full length recombinant human SET expressed in HEK293 cells assessed as residual binding level for radioligand at 10 uM after 60 mins by radiometric scintillation analysis relative to control; assay type: cell-based
[20] = target: Muscarinic acetylcholine receptor M2 (Homo sapiens) (UniProt P08172); assay: Displacement of [3H]N-Methylscopolamine from full length human recombinant muscarinic M2 receptor expressed in CHO-K1 cells assessed as residual binding level for radioligand at 10 uM measured after 120 mins by radiometric scintillation analysis relative to control; assay type: cell-based
[21] = target: D(1A) dopamine receptor (Homo sapiens) (UniProt P21728); assay: Displacement of [3H]-SCH 23390 from recombinant full length human dopamine D1 receptor expressed in CHO cells assessed as residual binding level for radioligand at 10 uM after 120 mins by radiometric scintillation analysis relative to control; assay type: cell-based
[22] = target: Muscarinic acetylcholine receptor M4 (Rattus norvegicus) (UniProt P08485); assay: Positive allosteric modulation of rat M4 receptor relative to acetylcholine; settings: filed as positive allosteric modulator
Rattus norvegicus [23] = species on record: Rattus norvegicus; assay: Displacement of [3H]-MDL105519 from NMDA glutamate receptor glycine binding site in Wistar rat brain assessed as residual binding level for radioligand at 10 uM incubated for 30 mins by scintillation counting analysis relative to control; assay type: tissue-based
[24] = target: Muscarinic acetylcholine receptor M1 (Homo sapiens, UniProt P11229); assay: Positive allosteric modulation of human M1 receptor
Chain of Muscarinic acetylcholine receptor M1 (P11229 whole entry): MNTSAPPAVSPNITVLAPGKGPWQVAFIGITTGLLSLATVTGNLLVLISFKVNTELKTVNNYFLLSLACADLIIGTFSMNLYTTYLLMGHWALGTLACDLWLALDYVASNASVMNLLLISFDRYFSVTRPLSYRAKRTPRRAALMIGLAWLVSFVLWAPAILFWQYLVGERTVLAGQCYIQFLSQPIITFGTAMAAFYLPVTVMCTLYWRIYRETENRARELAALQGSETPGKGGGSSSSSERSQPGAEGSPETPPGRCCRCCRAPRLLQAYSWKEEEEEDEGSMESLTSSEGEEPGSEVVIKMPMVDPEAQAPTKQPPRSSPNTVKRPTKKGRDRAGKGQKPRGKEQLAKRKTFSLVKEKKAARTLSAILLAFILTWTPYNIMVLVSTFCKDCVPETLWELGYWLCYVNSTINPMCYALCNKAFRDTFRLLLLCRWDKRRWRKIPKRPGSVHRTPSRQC

Chain of Cysteinyl leukotriene receptor 1 (Homo sapiens) (Q9Y271 whole entry): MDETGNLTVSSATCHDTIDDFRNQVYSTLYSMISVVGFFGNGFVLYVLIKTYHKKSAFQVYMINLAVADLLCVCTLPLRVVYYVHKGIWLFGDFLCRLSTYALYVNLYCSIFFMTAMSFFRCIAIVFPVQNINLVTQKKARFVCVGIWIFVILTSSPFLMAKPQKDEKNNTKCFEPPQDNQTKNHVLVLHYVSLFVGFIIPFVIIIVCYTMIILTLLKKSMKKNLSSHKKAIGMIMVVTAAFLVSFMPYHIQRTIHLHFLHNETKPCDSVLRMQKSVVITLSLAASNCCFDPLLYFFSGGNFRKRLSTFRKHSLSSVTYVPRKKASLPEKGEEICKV
Chain of Muscarinic acetylcholine receptor M2 (Homo sapiens) (P08172 whole entry): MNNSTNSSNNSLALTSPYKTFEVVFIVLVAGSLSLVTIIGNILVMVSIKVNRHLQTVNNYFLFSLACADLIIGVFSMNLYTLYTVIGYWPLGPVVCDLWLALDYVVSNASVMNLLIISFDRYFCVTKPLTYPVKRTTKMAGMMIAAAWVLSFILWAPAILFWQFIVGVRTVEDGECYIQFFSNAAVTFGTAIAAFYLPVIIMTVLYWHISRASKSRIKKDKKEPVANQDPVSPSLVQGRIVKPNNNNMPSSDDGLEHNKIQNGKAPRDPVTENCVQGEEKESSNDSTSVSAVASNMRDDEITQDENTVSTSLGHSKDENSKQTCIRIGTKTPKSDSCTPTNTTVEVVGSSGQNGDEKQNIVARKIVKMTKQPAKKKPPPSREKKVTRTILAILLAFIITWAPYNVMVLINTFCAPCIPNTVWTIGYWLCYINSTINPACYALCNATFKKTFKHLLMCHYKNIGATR
Chain of Alpha-1B adrenergic receptor (Homo sapiens) (P35368 whole entry): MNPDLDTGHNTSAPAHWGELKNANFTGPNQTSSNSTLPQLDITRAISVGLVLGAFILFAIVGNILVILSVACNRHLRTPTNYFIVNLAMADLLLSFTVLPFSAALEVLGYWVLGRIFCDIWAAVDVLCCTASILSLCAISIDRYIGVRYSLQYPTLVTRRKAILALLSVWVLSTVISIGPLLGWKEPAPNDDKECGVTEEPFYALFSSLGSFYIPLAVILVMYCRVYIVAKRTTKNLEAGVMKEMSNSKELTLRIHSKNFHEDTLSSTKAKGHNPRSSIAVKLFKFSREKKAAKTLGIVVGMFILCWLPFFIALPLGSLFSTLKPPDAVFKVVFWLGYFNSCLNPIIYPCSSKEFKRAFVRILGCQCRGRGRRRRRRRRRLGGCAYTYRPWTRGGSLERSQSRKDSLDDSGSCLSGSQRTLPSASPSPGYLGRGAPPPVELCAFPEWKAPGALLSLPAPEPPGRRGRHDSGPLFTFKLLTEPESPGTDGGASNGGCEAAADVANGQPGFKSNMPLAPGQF
Chain of Neuropeptide Y receptor type 1 (Homo sapiens) (P25929 whole entry): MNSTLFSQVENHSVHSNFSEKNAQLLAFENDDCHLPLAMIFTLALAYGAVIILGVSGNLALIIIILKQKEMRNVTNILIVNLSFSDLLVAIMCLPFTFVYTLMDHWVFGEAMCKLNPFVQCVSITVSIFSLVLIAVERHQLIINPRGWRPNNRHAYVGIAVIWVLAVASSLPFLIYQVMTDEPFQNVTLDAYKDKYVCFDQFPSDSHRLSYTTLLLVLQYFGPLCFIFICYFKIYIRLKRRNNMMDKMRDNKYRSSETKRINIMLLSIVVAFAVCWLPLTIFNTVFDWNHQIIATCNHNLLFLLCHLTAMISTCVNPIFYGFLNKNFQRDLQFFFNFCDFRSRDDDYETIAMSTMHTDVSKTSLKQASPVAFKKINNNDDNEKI
Chain of Muscarinic acetylcholine receptor M3 (P08483 whole entry): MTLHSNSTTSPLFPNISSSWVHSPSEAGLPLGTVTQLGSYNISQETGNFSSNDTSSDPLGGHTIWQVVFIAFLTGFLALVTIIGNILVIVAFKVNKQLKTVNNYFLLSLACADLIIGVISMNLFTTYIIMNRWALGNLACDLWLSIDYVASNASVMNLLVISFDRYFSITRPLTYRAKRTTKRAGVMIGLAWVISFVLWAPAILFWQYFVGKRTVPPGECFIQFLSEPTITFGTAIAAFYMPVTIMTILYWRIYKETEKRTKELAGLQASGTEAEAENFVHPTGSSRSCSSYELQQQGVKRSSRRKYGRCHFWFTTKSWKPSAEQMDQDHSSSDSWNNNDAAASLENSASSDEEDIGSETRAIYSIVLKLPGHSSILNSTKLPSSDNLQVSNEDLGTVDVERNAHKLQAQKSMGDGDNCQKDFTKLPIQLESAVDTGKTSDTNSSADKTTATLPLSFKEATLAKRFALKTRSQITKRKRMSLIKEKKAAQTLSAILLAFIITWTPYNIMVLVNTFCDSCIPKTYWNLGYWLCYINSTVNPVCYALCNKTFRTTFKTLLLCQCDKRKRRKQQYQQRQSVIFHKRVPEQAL
Chain of B2 bradykinin receptor (Homo sapiens) (P30411 whole entry): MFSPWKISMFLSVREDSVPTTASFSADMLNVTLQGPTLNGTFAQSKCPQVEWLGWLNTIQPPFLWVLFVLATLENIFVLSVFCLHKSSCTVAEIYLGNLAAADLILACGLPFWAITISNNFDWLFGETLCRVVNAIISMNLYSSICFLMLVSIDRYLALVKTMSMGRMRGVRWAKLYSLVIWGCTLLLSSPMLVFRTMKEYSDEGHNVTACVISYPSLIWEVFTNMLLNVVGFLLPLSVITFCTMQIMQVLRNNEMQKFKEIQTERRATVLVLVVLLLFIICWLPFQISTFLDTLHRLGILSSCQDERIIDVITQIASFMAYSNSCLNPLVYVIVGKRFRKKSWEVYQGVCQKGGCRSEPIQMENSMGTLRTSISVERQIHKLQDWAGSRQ
Chain of D(1A) dopamine receptor (Homo sapiens) (P21728 whole entry): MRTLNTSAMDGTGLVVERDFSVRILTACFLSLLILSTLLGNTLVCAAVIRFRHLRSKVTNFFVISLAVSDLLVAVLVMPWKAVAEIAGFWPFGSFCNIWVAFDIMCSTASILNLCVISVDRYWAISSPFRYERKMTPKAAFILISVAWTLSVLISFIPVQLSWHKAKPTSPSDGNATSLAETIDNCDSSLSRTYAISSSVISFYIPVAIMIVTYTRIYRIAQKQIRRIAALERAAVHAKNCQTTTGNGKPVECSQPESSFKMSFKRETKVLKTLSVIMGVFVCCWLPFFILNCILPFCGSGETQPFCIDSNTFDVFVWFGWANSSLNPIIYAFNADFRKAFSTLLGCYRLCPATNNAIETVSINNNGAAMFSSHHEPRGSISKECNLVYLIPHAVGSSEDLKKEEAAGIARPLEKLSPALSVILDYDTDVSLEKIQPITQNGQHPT
Chain of Sodium-dependent serotonin transporter (Homo sapiens) (P31645 whole entry, looked up): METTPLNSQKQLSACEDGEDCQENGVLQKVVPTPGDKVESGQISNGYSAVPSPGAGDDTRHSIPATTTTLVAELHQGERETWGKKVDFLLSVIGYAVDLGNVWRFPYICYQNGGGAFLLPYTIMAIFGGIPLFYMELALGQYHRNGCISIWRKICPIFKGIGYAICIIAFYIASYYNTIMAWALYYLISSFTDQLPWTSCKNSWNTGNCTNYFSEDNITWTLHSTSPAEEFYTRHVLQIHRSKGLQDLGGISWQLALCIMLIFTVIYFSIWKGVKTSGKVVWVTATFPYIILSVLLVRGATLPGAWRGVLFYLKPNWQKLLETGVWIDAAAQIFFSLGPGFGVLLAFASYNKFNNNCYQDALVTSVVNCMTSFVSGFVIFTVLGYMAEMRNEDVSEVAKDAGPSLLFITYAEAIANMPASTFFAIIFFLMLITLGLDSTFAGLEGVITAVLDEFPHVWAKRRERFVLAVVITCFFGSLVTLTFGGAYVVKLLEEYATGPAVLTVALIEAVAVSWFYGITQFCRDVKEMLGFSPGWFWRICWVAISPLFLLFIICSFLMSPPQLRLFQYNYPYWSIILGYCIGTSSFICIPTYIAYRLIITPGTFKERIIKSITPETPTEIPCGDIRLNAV
Chain of Cytochrome P450 1A2 (P05177 whole entry): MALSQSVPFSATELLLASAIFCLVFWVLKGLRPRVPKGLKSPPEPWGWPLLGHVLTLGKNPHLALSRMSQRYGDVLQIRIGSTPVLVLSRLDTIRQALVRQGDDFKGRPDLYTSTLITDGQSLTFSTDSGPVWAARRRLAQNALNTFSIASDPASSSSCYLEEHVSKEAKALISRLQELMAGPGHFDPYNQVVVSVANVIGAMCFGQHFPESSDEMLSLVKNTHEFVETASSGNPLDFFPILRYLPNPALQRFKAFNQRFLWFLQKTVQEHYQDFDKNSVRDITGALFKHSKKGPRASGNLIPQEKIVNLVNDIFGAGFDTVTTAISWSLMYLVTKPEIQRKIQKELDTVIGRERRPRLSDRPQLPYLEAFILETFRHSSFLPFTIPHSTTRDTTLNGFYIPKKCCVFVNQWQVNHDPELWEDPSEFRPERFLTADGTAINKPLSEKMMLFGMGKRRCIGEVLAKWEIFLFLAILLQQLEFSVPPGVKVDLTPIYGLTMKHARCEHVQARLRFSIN
Chain of Sigma non-opioid intracellular receptor 1 (Homo sapiens) (Q99720 whole entry): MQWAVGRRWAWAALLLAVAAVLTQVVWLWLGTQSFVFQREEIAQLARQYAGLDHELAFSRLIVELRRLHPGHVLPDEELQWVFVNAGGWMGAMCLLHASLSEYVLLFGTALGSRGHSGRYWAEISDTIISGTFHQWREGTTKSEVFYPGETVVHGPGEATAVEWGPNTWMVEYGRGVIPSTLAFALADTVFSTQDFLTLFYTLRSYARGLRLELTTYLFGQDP

Compound `COc1nnc2sc(C(=O)NC3CN(c4ncc(C(F)(F)F)cn4)C3)c(N)c2c1C` has an Activity [1] of over 50%, a Kp at 0.25 h [2] of 0.34 and an EC50 [3] of over 30000 nM. It also gave an Activity [4] of over 50%, a Kp uu [5] of 1.5 and an Activity (Rattus norvegicus [6]) of 44%. The EC50 [7] was 90 nM, the Activity [8] was over 50% and the activity at 3 h, 10 µM [9] was over 50%. It also gave an Activity [10] of over 50%, an IC50 (Cytochrome P450 1A2) of over 30000 nM and an Activity [11] of over 50%. It also gave an Activity [12] of over 50%, a fraction unbound [13] of 0.02 and an Activity [14] of over 50%. The EC50 [15] was 87 nM, the Activity [16] was over 50% and the Activity [17] was over 50%. The Activity [18] was over 50%, the Activity [19] was over 50% and the Activity [20] was over 50%. It also gave an Activity [21] of over 50%, a %max [22] of 93% and an Activity (Rattus norvegicus [23]) of over 50%. For the same compound, the EC50 [24] was over 30000 nM.

Reference: ChEMBL document CHEMBL4665653, “VU6005806/AZN-00016130, an advanced M positive allosteric modulator (PAM) profiled as a potential preclinical development candidate” (Bioorg Med Chem Lett, 2019)
